In ChEMBL document CHEMBL1201862, “PubChem BioAssay data set” (2004):
Several values for one entry are separate records, joined by “and”; a condition that tells them apart may be missing. Identical values can stand only once.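 Each compound was tested at five concentrations against cells in 96-well plates for 48 hours. GI50 is the concentration that inhibits growth by half.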 Activity calls are given as the source filed them. Rule as the data show it: active = GI50 up to about 1.1 µM and inactive = higher.

Assays:
Test in all cases: NCI anticancer screen, dose series, 48 h
CAKI-1 = test system: CAKI-1
NCI-H522 = test system: NCI-H522
NCI-H226 = test system: NCI-H226
Malme-3M = test system: Malme-3M
COLO 205 = test system: COLO 205
K562 = test system: K562
MCF7 = test system: MCF7
HCT-15 = test system: HCT-15
SF-539 = test system: SF-539
A498 = test system: A498
SK-OV-3 = test system: SK-OV-3
UO-31 = test system: UO-31
SR = test system: SR
PC-3 = test system: PC-3
MOLT-4 = test system: MOLT-4
KM12 = test system: KM12
HCT-116 = test system: HCT-116
NCI/ADR-RES = test system: NCI/ADR-RES
ACHN = test system: ACHN

SMILES | GI50 (CAKI-1) | GI50 (NCI-H522) | GI50 (NCI-H226) | GI50 (Malme-3M) | GI50 (COLO 205) | GI50 (K562) | GI50 (MCF7) | GI50 (HCT-15) | GI50 (SF-539) | GI50 (A498) | GI50 (SK-OV-3) | GI50 (UO-31) | GI50 (SR) | GI50 (PC-3) | GI50 (MOLT-4) | GI50 (KM12) | GI50 (HCT-116) | GI50 (NCI/ADR-RES) | GI50 (ACHN)
CN(C)/C=C/c1c2c(nc3ccccc13)C(=O)c1cccnc1C2=O | 1.46 µM (inactive) | 0.315 µM (active) | 0.292 µM (active) | 0.697 µM (active) | 2.07 µM (inactive) | 0.446 µM (active) | 0.262 µM (active) | 0.0908 µM | 0.3 µM (active) | 0.865 µM (active) | 0.792 µM (active) | 0.557 µM (active) | 0.221 µM (active) | 0.542 µM (active) | 2.01 µM (inactive) | 0.35 µM (active) | 0.197 µM (active) | 0.321 µM (active) | 0.217 µM (active)
COC(=O)C1Cc2ccc(O)c(O)c2CN1 (stereo unspecified) | > 100 µM (inactive) | > 100 µM (inactive) | > 100 µM (inactive) | 32.1 µM (inactive) | > 100 µM (inactive) | 28.8 µM (inactive) | 17.1 µM (inactive) | 29.7 µM | 18.4 µM (inactive) | > 100 µM (inactive) | > 100 µM (inactive) | 22.5 µM (inactive) | 29.1 µM (inactive) | 26.1 µM (inactive) | 25.1 µM (inactive) | 69.3 µM (inactive) | 23.7 µM (inactive) | 22.1 µM (inactive) | > 100 µM (inactive)
Cc1ccc(CC(Cc2ccc(C)cc2C(=O)O)C(=O)O)cc1 (stereo unspecified) | > 100 µM (inactive) | > 100 µM (inactive) | > 100 µM (inactive) | > 100 µM (inactive) | > 100 µM (inactive) |  | > 100 µM (inactive) | > 100 µM | > 100 µM (inactive) | > 100 µM (inactive) | > 100 µM (inactive) | > 100 µM (inactive) | > 100 µM (inactive) | > 100 µM (inactive) | > 100 µM (inactive) | > 100 µM (inactive) | > 100 µM (inactive) | > 100 µM (inactive) | > 100 µM (inactive)
CSc1cc(Cl)c(C)cc1S(=O)(=O)NC(=O)NNc1ccc(F)cc1 | > 100 µM (inactive) | > 100 µM (inactive) | > 100 µM (inactive) | > 100 µM (inactive) | > 100 µM (inactive) | > 100 µM (inactive) | > 100 µM (inactive) | > 100 µM | > 100 µM (inactive) | > 100 µM (inactive) | > 100 µM (inactive) |  | > 100 µM (inactive) | > 100 µM (inactive) | > 100 µM (inactive) | > 100 µM (inactive) | > 100 µM (inactive) | > 100 µM (inactive) | 66.8 µM (inactive)
CC(=O)Nc1cc2cc(N)ccc2oc1=O | > 100 µM (inactive) | > 100 µM (inactive) | > 100 µM (inactive) | > 100 µM (inactive) | > 100 µM (inactive) | > 100 µM (inactive) | > 100 µM (inactive) | > 100 µM | > 100 µM (inactive) | > 100 µM (inactive) |  | > 100 µM (inactive) | > 100 µM (inactive) | > 100 µM (inactive) | > 100 µM (inactive) | > 100 µM (inactive) | > 100 µM (inactive) | > 100 µM (inactive) | > 100 µM (inactive)
CC(=O)c1c(=O)n(-c2ccc(C)cc2)c(O)c2c(N)n[nH]c12 | > 100 µM (inactive) | > 100 µM (inactive) | > 100 µM (inactive) | > 100 µM (inactive) | > 100 µM (inactive) | > 100 µM (inactive) | > 100 µM (inactive) | > 100 µM | > 100 µM (inactive) | > 100 µM (inactive) | > 100 µM (inactive) | 60 µM (inactive) | > 100 µM (inactive) | > 100 µM (inactive) | > 100 µM (inactive) | > 100 µM (inactive) | > 100 µM (inactive) | > 100 µM (inactive) | 
COc1cc2c3cc1Oc1cc(ccc1O)C[C@@H]1c4c(cc(OC)c(O)c4Oc4ccc(cc4)C[C@@H]3N(C)CC2)CC[N+]1(C)C | > 100 µM (inactive) | 24.9 µM (inactive) | > 100 µM (inactive) | 17.8 µM (inactive) | 77.1 µM (inactive) | 42 µM (inactive) | 22.4 µM (inactive) | 70.1 µM | 15.1 µM (inactive) | 81.7 µM (inactive) |  | > 100 µM (inactive) | 24.8 µM (inactive) | 21.9 µM (inactive) | 61.8 µM (inactive) | 27.1 µM (inactive) | 48.4 µM (inactive) | > 100 µM (inactive) | > 100 µM (inactive)
CSC1(CC(=O)N(C)C)C(=O)Nc2ccccc21 (stereo unspecified) |  |  | > 100 µM (inactive) | > 100 µM (inactive) | > 100 µM (inactive) | > 100 µM (inactive) | > 100 µM (inactive) | > 100 µM | > 100 µM (inactive) | > 100 µM (inactive) | > 100 µM (inactive) | > 100 µM (inactive) | > 100 µM (inactive) | > 100 µM (inactive) | > 100 µM (inactive) | > 100 µM (inactive) | > 100 µM (inactive) | > 100 µM (inactive) | > 100 µM (inactive)
CC(=O)OC1COC(n2c(N)c(C#N)c(-c3ccccc3)c(C#N)c2=S)C(OC(C)=O)C1OC(C)=O (stereo unspecified) | 39.4 µM (inactive) and 40.7 µM (inactive) | 38.5 µM (inactive) and 40.8 µM (inactive) |  | 34.3 µM (inactive) and 33.4 µM (inactive) | 31.6 µM (inactive) and 31.3 µM (inactive) |  | 34.4 µM (inactive) and 29.9 µM (inactive) | 52.6 µM and 72.6 µM | 40.2 µM (inactive) and 32.4 µM (inactive) | 24.8 µM (inactive) and 33.2 µM (inactive) | 38.3 µM (inactive) and 45 µM (inactive) | 23.1 µM (inactive) and 36.5 µM (inactive) | 19.6 µM (inactive) and 22.2 µM (inactive) | 43.9 µM (inactive) and 40.1 µM (inactive) | 24.6 µM (inactive) and 24.3 µM (inactive) | 67 µM (inactive) and 40.7 µM (inactive) | 45.5 µM (inactive) and 37.8 µM (inactive) | > 100 µM (inactive) and 71.6 µM (inactive) | 45.7 µM (inactive) and 71.4 µM (inactive)
COc1cc2nc(-c3cccs3)nc(N3CCN(c4ccccc4)CC3)c2cc1OC | > 100 µM (inactive) | > 100 µM (inactive) | > 100 µM (inactive) | > 100 µM (inactive) | > 100 µM (inactive) | > 100 µM (inactive) | > 100 µM (inactive) | > 100 µM | > 100 µM (inactive) | > 100 µM (inactive) | > 100 µM (inactive) | > 100 µM (inactive) | > 100 µM (inactive) | > 100 µM (inactive) |  | > 100 µM (inactive) | > 100 µM (inactive) | > 100 µM (inactive) | > 100 µM (inactive)
CC1=NN(c2nc(N)nc(CC#N)n2)C(C)(C)C1 | > 100 µM (inactive) |  | > 100 µM (inactive) |  | > 100 µM (inactive) | > 100 µM (inactive) | > 100 µM (inactive) | > 100 µM | > 100 µM (inactive) | > 100 µM (inactive) | > 100 µM (inactive) | > 100 µM (inactive) | > 100 µM (inactive) | > 100 µM (inactive) | > 100 µM (inactive) | > 100 µM (inactive) | > 100 µM (inactive) | > 100 µM (inactive) | > 100 µM (inactive)
CN(NC(=O)c1cccs1)C1=NCCCCN1 |  | > 100 µM (inactive) | > 100 µM (inactive) | > 100 µM (inactive) | > 100 µM (inactive) | > 100 µM (inactive) | > 100 µM (inactive) | > 100 µM | > 100 µM (inactive) | > 100 µM (inactive) | > 100 µM (inactive) | > 100 µM (inactive) | > 100 µM (inactive) | > 100 µM (inactive) | > 100 µM (inactive) | > 100 µM (inactive) | > 100 µM (inactive) | > 100 µM (inactive) | > 100 µM (inactive)
CCC1NC(=O)C(NC(=O)c2ncccc2O)C(C)OC(=O)C(c2ccccc2)NC(=O)C2CC(=O)CCN2C(=O)C(Cc2ccccc2)N(C)C(=O)C2CCCN2C1=O (stereo unspecified) | > 100 µM (inactive) | > 100 µM (inactive) | > 100 µM (inactive) | > 100 µM (inactive) | > 100 µM (inactive) | > 100 µM (inactive) | > 100 µM (inactive) | > 100 µM | > 100 µM (inactive) | > 100 µM (inactive) | > 100 µM (inactive) | > 100 µM (inactive) | 37.4 µM (inactive) | > 100 µM (inactive) |  | > 100 µM (inactive) | > 100 µM (inactive) | > 100 µM (inactive) | > 100 µM (inactive)
CO/N=C1\CC(NC(=O)C(F)(F)F)c2ccsc21 (stereo unspecified) | > 100 µM (inactive) |  | > 100 µM (inactive) | > 100 µM (inactive) | > 100 µM (inactive) | > 100 µM (inactive) | > 100 µM (inactive) | > 100 µM | > 100 µM (inactive) | > 100 µM (inactive) | > 100 µM (inactive) | > 100 µM (inactive) | > 100 µM (inactive) | > 100 µM (inactive) | > 100 µM (inactive) |  | > 100 µM (inactive) | > 100 µM (inactive) | 
CCOC(=O)c1nc2cc(F)cc(F)c2[nH]c1=O | > 100 µM (inactive) |  | > 100 µM (inactive) |  | > 100 µM (inactive) | > 100 µM (inactive) | > 100 µM (inactive) | > 100 µM | > 100 µM (inactive) | > 100 µM (inactive) | > 100 µM (inactive) | 72.8 µM (inactive) | > 100 µM (inactive) | > 100 µM (inactive) | > 100 µM (inactive) | > 100 µM (inactive) | > 100 µM (inactive) | > 100 µM (inactive) | > 100 µM (inactive)
